Experimental data from PMC7891582 (Journal of Clinical Pharmacology, 2020).
Entries after “also recorded” stand apart in the source; their conditions may differ.

Legend:
CYP3A [1] = assay: Midazolam; type: in vivo, human
CYP2C9 [2] = target: CYP2C9 (Homo sapiens, UniProt P11712); assay: Tolbutamide; type: in vivo
P‐gp [3] = target: P‐gp (Homo sapiens, UniProt P08183); assay: Digoxin; type: in vivo
CYP2C19 [4] = target: CYP2C19 (Homo sapiens, UniProt P33261); assay: Omeprazole
[5] = Safety in midazolam/tolbutamide study; type: in vivo, human
CYP3A [6] = settings: ref unpublished in vitro studies, cited from earlier work
CYP3A [7] = settings: human liver microsome, concentration-dependent; ref unpublished data; cited from earlier work
CYP2C19 [8] = settings: in vitro data; ref unpublished in vitro studies; cited from earlier work
P‐gp [9] = settings: cited from earlier work
CYP2C9 [10] = settings: read-out: IC50 for CYP2C9 inhibition; in vitro; ref unpublished in vitro studies; cited from earlier work
[11] = cited from earlier work
[12] = Safety in omeprazole/digoxin study; type: in vivo, human
[13] = coadministered with pexidartinib
[14] = coadministered with pexidartinib 1800 mg
[15] = after multiple doses of pexidartinib
[16] = coadministration with single dose of pexidartinib
[17] = coadministered with single dose pexidartinib
[18] = omeprazole plus pexidartinib vs omeprazole only

P‐gp (Homo sapiens, UniProt P08183), sequence (P08183 whole entry): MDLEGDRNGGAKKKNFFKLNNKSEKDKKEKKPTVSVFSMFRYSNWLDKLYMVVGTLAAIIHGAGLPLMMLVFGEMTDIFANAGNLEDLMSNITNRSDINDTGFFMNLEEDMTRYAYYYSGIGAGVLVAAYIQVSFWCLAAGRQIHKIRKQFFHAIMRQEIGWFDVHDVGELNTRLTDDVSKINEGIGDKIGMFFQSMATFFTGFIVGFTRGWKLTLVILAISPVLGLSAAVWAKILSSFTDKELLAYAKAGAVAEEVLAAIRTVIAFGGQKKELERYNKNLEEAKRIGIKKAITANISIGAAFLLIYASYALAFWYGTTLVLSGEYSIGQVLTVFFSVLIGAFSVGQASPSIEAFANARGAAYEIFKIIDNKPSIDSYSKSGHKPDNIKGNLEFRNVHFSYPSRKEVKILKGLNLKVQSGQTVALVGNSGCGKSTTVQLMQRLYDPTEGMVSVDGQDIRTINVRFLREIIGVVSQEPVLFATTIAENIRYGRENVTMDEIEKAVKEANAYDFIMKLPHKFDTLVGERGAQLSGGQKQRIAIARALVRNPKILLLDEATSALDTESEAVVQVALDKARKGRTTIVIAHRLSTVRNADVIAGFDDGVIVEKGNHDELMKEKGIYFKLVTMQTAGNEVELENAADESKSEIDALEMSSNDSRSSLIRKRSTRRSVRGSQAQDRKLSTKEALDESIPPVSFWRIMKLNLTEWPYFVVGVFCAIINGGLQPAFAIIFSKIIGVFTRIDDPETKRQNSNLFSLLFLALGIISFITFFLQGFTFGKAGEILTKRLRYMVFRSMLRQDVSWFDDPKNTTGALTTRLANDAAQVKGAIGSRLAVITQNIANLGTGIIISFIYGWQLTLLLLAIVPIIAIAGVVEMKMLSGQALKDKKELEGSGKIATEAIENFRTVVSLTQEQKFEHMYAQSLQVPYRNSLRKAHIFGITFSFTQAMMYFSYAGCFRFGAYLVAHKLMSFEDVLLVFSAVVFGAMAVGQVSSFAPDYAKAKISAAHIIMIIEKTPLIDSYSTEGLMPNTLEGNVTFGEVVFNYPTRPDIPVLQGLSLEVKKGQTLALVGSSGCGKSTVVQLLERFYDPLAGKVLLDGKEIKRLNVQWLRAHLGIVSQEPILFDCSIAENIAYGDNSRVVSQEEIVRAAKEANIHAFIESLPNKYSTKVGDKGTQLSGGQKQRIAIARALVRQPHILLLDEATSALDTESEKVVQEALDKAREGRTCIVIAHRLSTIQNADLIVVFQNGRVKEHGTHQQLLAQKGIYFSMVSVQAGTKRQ
CYP2C19 (Homo sapiens, UniProt P33261), sequence (P33261 whole entry): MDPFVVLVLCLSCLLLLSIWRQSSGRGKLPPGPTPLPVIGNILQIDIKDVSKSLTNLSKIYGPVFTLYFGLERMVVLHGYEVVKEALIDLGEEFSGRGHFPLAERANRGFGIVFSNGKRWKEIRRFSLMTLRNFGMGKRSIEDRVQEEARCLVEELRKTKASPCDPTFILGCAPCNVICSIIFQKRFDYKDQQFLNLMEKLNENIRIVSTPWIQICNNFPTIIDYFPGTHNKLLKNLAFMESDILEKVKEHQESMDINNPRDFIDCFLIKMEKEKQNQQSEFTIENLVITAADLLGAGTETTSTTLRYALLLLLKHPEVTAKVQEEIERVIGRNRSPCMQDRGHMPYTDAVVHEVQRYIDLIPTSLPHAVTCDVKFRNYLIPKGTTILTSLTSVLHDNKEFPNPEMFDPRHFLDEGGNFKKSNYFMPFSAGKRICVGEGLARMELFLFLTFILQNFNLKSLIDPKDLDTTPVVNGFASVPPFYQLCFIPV
CYP2C9 (Homo sapiens, UniProt P11712), sequence (P11712 whole entry): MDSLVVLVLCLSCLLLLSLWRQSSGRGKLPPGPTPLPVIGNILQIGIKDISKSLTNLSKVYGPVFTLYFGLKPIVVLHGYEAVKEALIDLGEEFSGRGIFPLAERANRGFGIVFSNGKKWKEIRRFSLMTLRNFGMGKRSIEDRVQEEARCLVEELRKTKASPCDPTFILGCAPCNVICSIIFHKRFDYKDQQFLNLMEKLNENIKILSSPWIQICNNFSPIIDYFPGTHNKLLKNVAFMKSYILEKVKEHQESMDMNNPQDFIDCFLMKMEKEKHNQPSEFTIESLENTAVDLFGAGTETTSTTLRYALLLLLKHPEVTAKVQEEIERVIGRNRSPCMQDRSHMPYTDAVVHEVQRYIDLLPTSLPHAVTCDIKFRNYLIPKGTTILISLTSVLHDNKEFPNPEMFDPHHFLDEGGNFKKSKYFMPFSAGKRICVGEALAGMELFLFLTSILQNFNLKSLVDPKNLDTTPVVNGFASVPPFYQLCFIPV

OCc1ncc2n1-c1ccc(Cl)cc1C(c1ccccc1F)=NC2 [1‐hydroxy midazolam]
exposure to 1-hydroxy midazolam (CYP3A [1]; with or without concomitant pexidartinib): similar

CCCCNC(=O)NS(=O)(=O)c1ccc(CO)cc1 [4‐hydroxy tolbutamide]
exposure to 4-hydroxy tolbutamide (CYP2C9 [2]; during pexidartinib coadministration): decrease

C[C@H]1O[C@@H](O[C@H]2[C@@H](O)C[C@H](O[C@H]3[C@@H](O)C[C@H](O[C@H]4CC[C@@]5(C)[C@H](CC[C@@H]6[C@@H]5C[C@@H](O)[C@]5(C)[C@@H](C7=CC(=O)OC7)CC[C@]65O)C4)O[C@@H]3C)O[C@@H]2C)C[C@H](O)[C@@H]1O [digoxin]
effect on digoxin AUClast (P‐gp [3]; [13]): no significant effect; also recorded: nonsignificant effect | effect on digoxin time to reach Cmax or shape of plasma concentration-time curve (P‐gp [3]; [13]): no apparent effect | increase in digoxin AUClast (P‐gp [3]; [14]): 8% | increase in digoxin Cmax (P‐gp [3]; [14]): 32%

Cc1ncc2n1-c1ccc(Cl)cc1C(c1ccccc1F)=NC2 [midazolam]
decrease in midazolam AUClast (CYP3A [1]; [15]): 52% | decrease in midazolam Cmax (CYP3A [1]; [15]): 28% | decrease in midazolam AUClast (CYP3A [1]; [16]): 21% | decrease in midazolam Cmax (CYP3A [1]; [16]): 9%

COc1ccc2[nH]c([S+]([O-])Cc3ncc(C)c(OC)c3C)nc2c1 (stereo not drawn) [omeprazole]
decrease in Cmax for omeprazole (CYP2C19 [4]; [17]): 37% | omeprazole tmax (CYP2C19 [4]; [17]): 3 h | AUC(0-inf) (CYP2C19 [4]; human, plasma, oral, 40 mg): 1740 ng·h/mL | AUC(0-t) (CYP2C19 [4]; human, plasma, oral, 40 mg): 1730 ng·h/mL | tmax (CYP2C19 [4]; human, plasma, oral, 40 mg): 2.25 h | Cmax (CYP2C19 [4]; human, plasma, po, 40 mg): 908 ng/mL | AUCinf geometric LS mean ratio (CYP2C19 [4]; [18]): 83.2% | AUClast geometric LS mean ratio (CYP2C19 [4]; [18]): 77.4% | Cmax geometric LS mean ratio (CYP2C19 [4]; [18]): 62.8%

FC(F)(F)c1ccc(CNc2ccc(Cc3c[nH]c4ncc(Cl)cc34)cn2)cn1 [pexidartinib]
subjects with a grade 4 TEAE ([5]; 30 subjects with tumors): 4 subjects | subjects with grade 3 TEAEs ([5]; 30 subjects with tumors): 40% | subjects who discontinued treatment due to pexidartinib-related TEAEs ([5]; drug hypersensitivity, increased blood bilirubin): 7% | grade 4 TEAEs considered related to pexidartinib ([5]; increased bilirubin): 1 | tolerability ([5]; midazolam/tolbutamide study): generally well tolerated | grade 3 TEAEs considered related to pexidartinib ([5]; of 22 grade 3 TEAEs): 9 | in vivo effect on P-gp transport (P‐gp [3]; digoxin probe): does not significantly affect | type of in vitro effect on CYP3A (CYP3A [6]; in vitro data): direct and time‐dependent inhibitor and an inducer | IC50 (CYP3A [6]; read-out: IC50 for CYP3A inhibition, in vitro): 16.7 µM | in vivo effect on CYP3A (FDA criteria) (CYP3A [1]; midazolam probe): moderate inducer | effect on midazolam hydroxylation (CYP3A [7]): activated midazolam hydroxylation | time dependence of inhibitory effect on CYP2C19 (CYP2C19 [8]): not time dependent | time dependence of inhibitory effect on P-gp (P‐gp [9]; in vitro data, ref unpublished in vitro studies): not time dependent | IC50 (P‐gp [9]; read-out: in vitro IC50 for P-gp, preclinical data, ref data on file): 43.4 µM | in vivo effect on CYP2C9 (FDA criteria) (CYP2C9 [2]; tolbutamide probe): weak inhibitor | IC50 (CYP2C9 [10]): 3.7 µM | delay of tmax with high-fat meal [11]: 1.5 h | effect of high-fat meal on exposure [11]: doubles | elimination half-life [11]: 26.6 h | accumulation ratio (exposure vs first dose) ([11]; multiple dosing, twice-daily regimen): ≈ 3.6 times | tmax ([11]; oral administration): ≈ 2.5 hours | TEAEs considered related to pexidartinib (all pruritus) ([12]; 20 healthy subjects): Three | intensity of TEAEs ([12]; 20 healthy subjects): mild (grade 1) | subjects who experienced a TEAE ([12]; 20 healthy subjects, single dose 1800 mg): 40% | tolerability ([12]; omeprazole/digoxin study): generally well tolerated | in vivo effect on CYP2C19-mediated metabolism (CYP2C19 [4]; omeprazole probe): does not significantly affect
